From patent US11613546B2, “Substituted pyridotriazine compounds and uses thereof” (Gilead Sciences, Inc., priority 2021, dated 2023)
Like-named read-outs stand apart in the source and are kept apart here.

Key:
[1] = tested on: HIV-1 (IIIB); assay: Antiviral assay in MT-4 cells; format: cell-based; settings: HIV-1 IIIB infected MT-4 cells, 5 days, Cell Titer Glo, read-out: MT4 EC50
How it was run: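 MT-4 cells infected with a 1:250 dilution of HIV-1 IIIB stock were incubated with serially diluted (1:3) compound for 5 days at 37 °C. Viability read by Cell Titer Glo luminescence; EC50 is the concentration giving 50% decrease in signal, from sigmoidal dose-response fits.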

[2] = Cytotoxicity assay in MT-4 cells; format: cell-based; settings: human, uninfected MT-4 cells, 5 days, Cell Titer Glo; read-out: CC50
How it was run: (§1)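 Uninfected MT-4 cells were incubated with 1:3 serially diluted compound in RPMI/10% FBS for 5 days at 37° C. Viability was read by CellTiter-Glo luminescence, with 10 μM puromycin as the baseline cytotoxicity control. Values are the concentration giving a 50% decrease in luminescence, from sigmoidal dose-response fits.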

[3] = tested on: pLai RLuc reporter virus; assay: HIV MT-4 serum shift antiviral reporter assay; format: cell-based
How it was run: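 MT-4 cells pre-infected with pLai RLuc virus for 2 h at 37 °C, then incubated 72 h at 37 °C with compound in medium (RPMI, 10% FBS) with or without 50% human serum; Renilla luminescence read. EC50 from sigmoidal fit; serum shift = EC50(HS/CCM)/EC50(CCM).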

[4] = Monkey PK after single-dose intravenous infusion; format: in vivo, monkeys; settings: cynomolgus, monkeys, single-dose intravenous infusion for 30 minutes, plasma, read-out: Cyno half-life (converted)
Procedure: Test compound PK was determined in monkeys (Labcorp, Madison, Wis.) following a single-dose intravenous infusion for 30 minutes. The dosing vehicle was 10% N-methylpyrrolidone; 50% polyethylene glycol 300 and 40% water (pH 8.3) for intravenous administration in monkeys. Serial blood samples were collected at predose, 0.25, 0.48 (before end of infusion), 0.58, 0.75, 1, 1.5, 2, 4, 8, 12, 24, 48, 72, 96, 120, 144, and 168 hours postdose (based on start of infusion) and plasma test compound concentrations were quantified using an LC-MS/MS method.
Nonclinical plasma samples were prepared by addition of 200 μl cold acetonitrile/internal standard solution to 96-well plates containing 50 μl aliquots of each plasma sample. After protein precipitation, each of the supernatants (50 μl) were transferred to clean 96-well plates and diluted with 450 μl of water. The sample injection volume was 2 μl. Samples were analyzed by a multiple reaction monitoring LC-MS/MS method. LC-MS system consisted of a Cohesive LX-2 multiplex with two identical DIONEX UltiMate 3000 RS pumps, Hypersil Gold C18 HPLC column (50×2.1 mm, […]; Thermo Fisher Scientific), and the ABSciex QTRAP5500 Mass Spectrometer LC-MS/MS system. Chromatography was performed using 0.1% formic acid and 1% isopropyl alcohol in aqueous solution (MP A), and 0.1% formic acid and 1% isopropyl alcohol in acetonitrile (MP B).
Plasma PK parameters for test compounds in monkeys were estimated via noncompartmental analysis using the software program Phoenix WinNonlin, version 6.3 (Pharsight Corporation, Mountain View, Calif.). The following plasma PK parameters were estimated in nonclinical species (as appropriate): observed peak plasma concentration (Cmax), time to reach Cmax (Tmax), last quantifiable plasma concentration (Clast), tin, time of Clast (Tlast), area under the plasma concentration-time curve (AUC) from time 0 to Clast (AUClast), AUC from time 0 to infinity (AUCinf), CL, mean residence time (MRT), and volume of distribution at steady state (Vss).

[5] = tested on: MT-4 cells; assay: Cytotoxicity assay in MT-4 cells; format: cell-based
How it was run: as §1

[6] = Human immunodeficiency virus 1, IIIB, MT4, 120 h
[7] = Human immunodeficiency virus 1, 72 h, read-out: RLUC 50% HS (nM), HS/CCM: 50% human serum, 72 h, Renilla Glo
[8] = Human immunodeficiency virus 1, 72 h, read-out: RLUC CCM (nM), cell culture media (RPMI, 10% FBS), 72 h, Renilla Glo
[9] = read-out: RLUC 50% HS, HS/CCM: 50% human serum, 72 h, Renilla Glo
[10] = uninfected MT-4 cells, 5 days, Cell Titer Glo, read-out: CC50
[11] = HS/CCM: 50% human serum, 72 h, Renilla Glo, read-out: RLUC 50% HS
[12] = cell culture media (RPMI, 10% FBS), 72 h, Renilla Glo, read-out: RLUC CCM

Row | Compound | EC50 [1, 6] [nM] | CC50 at 5 days [2] [µM] | EC50 [3, 7] [nM] | EC50 [3, 8] [nM] | half-life [4] [days] | EC50 [1] [nM] | EC50 [3, 9] [nM] | CC50 [5, 10] [µM] | EC50 [3, 11] [nM] | EC50 [3, 12] [nM] | CC50 [5] [µM]
1 | C[C@@H]1C=C[C@H](C)N2CN1n1cc(C(=O)NCc3c(F)cc(F)cc3F)c(=O)c(O)c1C2=O [Example C24, (1S,2R,5S)-8-hydroxy-2,5-dimethyl-7,9-dioxo-N-(2,4,6-trifluorobenzyl)-2,5,7,9-tetrahydro-1,6-methanopyrido[1,2-b][1,2,5]triazonine-10-carboxamide] | 0.98 | 11.4 | 328 | 0.44 | 2.38 |  |  |  |  |  | 
2 | C[C@H]1C=C[C@H](C)N2CN1C(=O)c1c(O)c(=O)c(C(=O)NCc3c(F)cc(F)cc3F)cn12 [Example C25, (1S,2S,5S)-8-hydroxy-2,5-dimethyl-7,9-dioxo-N-(2,4,6-trifluorobenzyl)-2,5,7,9-tetrahydro-1,6-methanopyrido[1,2-b][1,2,5]triazonine-10-carboxamide] |  | 17.4 |  | 0.47 | 2.29 | 1 | 68 |  |  |  | 
3 | C[C@H]1CC[C@H](C)N2CN1C(=O)c1c(O)c(=O)c(C(=O)NCc3c(F)cc(F)cc3F)cn12 [Example C27, (1S,2R,5S)-8-hydroxy-2,5-dimethyl-7,9-dioxo-N-(2,4,6-trifluorobenzyl)-2,3,4,5,7,9-hexahydro-1,6-methanopyrido[1,2-b][1,2,5]triazonine-10-carboxamide] | 1.3 | 9.55 |  | 0.55 | 2 |  | 594 |  |  |  | 
4 | C[C@H]1C=C[C@@H](CF)N2CN1C(=O)c1c(O)c(=O)c(C(=O)NCc3ccc(F)cc3F)cn12 [Example C44, (2S,5S)—N-(2,4-difluorobenzyl)-2-(fluoromethyl)-8-hydroxy-5-methyl-7,9-dioxo-2,5,7,9-tetrahydro-1,6-methanopyrido[1,2-b][1,2,5]triazonine-10-carboxamide] | 1.2 | 15 |  |  | 1.21 |  |  |  |  |  | 
5 | C[C@@H]1C=C[C@H](C)N2CN1n1cc(C(=O)NCc3ccc(F)c(Cl)c3F)c(=O)c(O)c1C2=O [Example C63, (1S,2R,5S)—N-(3-chloro-2,4-difluorobenzyl)-8-hydroxy-2,5-dimethyl-7,9-dioxo-2,5,7,9-tetrahydro-1,6-methanopyrido[1,2-b][1,2,5]triazonine-10-carboxamide] |  |  |  |  | 4.58 |  |  |  |  |  | 
6 | C[C@H]1CC[C@@H](C(F)F)N2CN1C(=O)c1c(O)c(=O)c(C(=O)NCc3c(F)cc(F)cc3F)cn12 [Example C78, (1S,2S,5S)-2-(difluoromethyl)-8-hydroxy-5-methyl-7,9-dioxo-N-(2,4,6-trifluorobenzyl)-2,3,4,5,7,9-hexahydro-1,6-methanopyrido[1,2-b][1,2,5]triazonine-10-carboxamide] |  |  |  |  |  | 1.6 |  | 13.7 | 1040 | 0.42 | 
7 | COC[C@@H]1C=C[C@H](C)N2CN1n1cc(C(=O)NCc3c(F)cc(F)cc3F)c(=O)c(O)c1C2=O [Example C79, (1S,2S,5S)-8-hydroxy-2-(methoxymethyl)-5-methyl-7,9-dioxo-N-(2,4,6-trifluorobenzyl)-2,5,7,9-tetrahydro-1,6-methanopyrido[1,2-b][1,2,5]triazonine-10-carboxamide] | 4.6 |  | 638 | 1.81 |  |  |  | 50 |  |  | 
8 | C[C@H]1C=C[C@H](CF)N2CN1C(=O)c1c(O)c(=O)c(C(=O)NCc3c(F)cc(F)cc3F)cn12 [Example C80, (1R,2R,5S)-2-(fluoromethyl)-8-hydroxy-5-methyl-7,9-dioxo-N-(2,4,6-trifluorobenzyl)-2,5,7,9-tetrahydro-1,6-methanopyrido[1,2-b][1,2,5]triazonine-10-carboxamide] |  |  |  |  |  | 8.1 |  |  | 810 | 1.24 | 25.4
9 | C[C@H]1C=C[C@]2(CCOC2)N2CN1C(=O)c1c(O)c(=O)c(C(=O)NCc3c(F)cc(F)cc3F)cn12 [Example C84, (1′S,3S,5′S)-8′-hydroxy-5′-methyl-7′,9′-dioxo-N-(2,4,6-trifluorobenzyl)-4,5,7′,9′-tetrahydro-2H,5′H-spiro[furan-3,2′-[1,6]methanopyrido[1,2-b][1,2,5]triazonine]-10′-carboxamide] |  |  |  |  |  | 0.6 |  | 20.5 | 24.9 | 0.26 | 
10 | C[C@@H]1[C@H]2C[C@H]2[C@H](C)N2CN1n1cc(C(=O)NCc3c(F)cc(F)cc3F)c(=O)c(O)c1C2=O [Example C89, (1aS,2R,3R,11S,11aR)-8-hydroxy-2,11-dimethyl-7,9-dioxo-N-(2,4,6-trifluorobenzyl)-1a,2,7,9,11,11a-hexahydro-1H-3,10-methanocyclopropa[g]pyrido[1,2-b][1,2,5]triazonine-6-carboxamide] |  |  |  |  |  | 1.1 |  | 37.2 | 36.5 | 1.09 | 
11 | C[C@H]1C=CC(C)(C)N2CN1n1cc(C(=O)NCc3ccc(F)cc3F)c(=O)c(O)c1C2=O [Example C91, (1R,2S)—N-(2,4-difluorobenzyl)-8-hydroxy-2,5,5-trimethyl-7,9-dioxo-2,5,7,9-tetrahydro-1,6-methanopyrido[1,2-b][1,2,5]triazonine-10-carboxamide] |  |  |  |  |  | 1.9 |  | 31 | 195 | 0.67 | 
12 | C[C@H]1C=CC(C)(C)N2CN1n1cc(C(=O)NCc3ccc(F)cc3F)c(=O)c(O)c1C2=O [Example C92, (1S,2S)—N-(2,4-difluorobenzyl)-8-hydroxy-2,5,5-trimethyl-7,9-dioxo-2,5,7,9-tetrahydro-1,6-methanopyrido[1,2-b][1,2,5]triazonine-10-carboxamide] |  |  |  |  |  | 1.5 |  | 17.5 | 246 | 0.67 | 
13 | C[C@@H]1CCC(C)(C)N2CN1n1cc(C(=O)NCc3ccc(F)cc3F)c(=O)c(O)c1C2=O [Example C93, (1S,2R)—N-(2,4-difluorobenzyl)-8-hydroxy-2,5,5-trimethyl-7,9-dioxo-2,3,4,5,7,9-hexahydro-1,6-methanopyrido[1,2-b][1,2,5]triazonine-10-carboxamide] |  |  |  |  |  | 16.9 |  | 50 | 96.8 | 1.15 | 
14 | C[C@H]1CCC(C)(C)N2CN1n1cc(C(=O)NCc3ccc(F)cc3F)c(=O)c(O)c1C2=O [Example C94, (1R,2S)—N-(2,4-difluorobenzyl)-8-hydroxy-2,5,5-trimethyl-7,9-dioxo-2,3,4,5,7,9-hexahydro-1,6-methanopyrido[1,2-b][1,2,5]triazonine-10-carboxamide] |  |  |  |  |  | 25.1 |  | 50 | 361 | 6.21 | 
15 | C[C@H]1CCC(C)(C)N2CN1n1cc(C(=O)NCc3ccc(F)cc3F)c(=O)c(O)c1C2=O [Example C95, (1S,2S)—N-(2,4-difluorobenzyl)-8-hydroxy-2,5,5-trimethyl-7,9-dioxo-2,3,4,5,7,9-hexahydro-1,6-methanopyrido[1,2-b][1,2,5]triazonine-10-carboxamide] | 12.3 |  | 461 | 2.52 |  |  |  | 50 |  |  | 
16 | O=C(NCc1c(F)cc(F)cc1F)c1cn2c(c(O)c1=O)C(=O)N1CCCCN2C1 [Example C108, (1R)-8-hydroxy-7,9-dioxo-N-(2,4,6-trifluorobenzyl)-2,3,4,5,7,9-hexahydro-1,6-methanopyrido[1,2-b][1,2,5]triazonine-10-carboxamide] |  |  |  |  |  | 3.3 |  | 22.9 | 208 | 0.98 | 
